In patent US5153203A, “Quinolone derivatives and salts thereof, preparation processes thereof, and antibacterial agents containing the same” (Wakunaga Seiyaku Kabushiki Kaisha, priority 1989, dated 1992):
In brackets after ≈: the same amount, converted by molar mass.

What was measured:
[1] = Partition coefficient, phosphate buffer/n-octanol; type: physicochemical; details: 50 mM phosphate buffer (pH 7.4, μ=0.15)/n-octanol
Protocol: Following the method proposed by Akira Tsuji et al. in Antimicrob. Agents Chemother., 32. 190-194 (1988), 50 mM phosphate buffer (pH 7.4, μ=0.15)/n-octanol partition coefficients were measured.

[2] = tested on: S. aureus 209 P (IFO 12732); test: Minimum inhibitory concentration (MIC), standard method of the Japan Society of Chemotherapy; type: cell-based; details: Staphylococcus aureus, IFO12732
Protocol: (§1) With respect to certain representative compounds among the compounds [I] of the present invention, their minimum inhibitory concentrations (MIC; μg/ml) were measured in accordance with the standard method established by the Japan Society of Chemotherapy [CHEMOTHERAPY, 29(1), 76-79 (1981]. The results are summarized in Table 1, in which the compound numbers are as shown in examples.

[3] = tested on: E. coli NIH JC-2 (IFO 12734); test: as above; type: cell-based; details: Escherichia coli, IFO12734
Protocol: as §1

P. aeruginosa (IFO 3445) = test: as above; type: cell-based; details: Pseudomonas aeruginosa, IFO3445
Protocol: as §1

Nc1c(F)c(OC2CCNCC2)c(F)c2c1c(=O)c(C(=O)O)cn2C1CC1 [Compound 19]
logD [1]: -0.693

CN(C)CC1CN(c2c(F)cc3c(=O)c(C(=O)O)cn(C4CC4)c3c2F)CO1 (centres unmarked) [Compound 69]
MIC [2]: 0.2 µg/mL (≈ 0.508 µM)
MIC [3]: 0.2 µg/mL (≈ 0.508 µM)
MIC (P. aeruginosa (IFO 3445)): 1.56 µg/mL (≈ 3.97 µM)

Cl.O=C(O)c1cn(C2CC2)c2cc(OC3CCNC3)c(F)cc2c1=O (centres unmarked) [Compound 1, 7-(3-Pyrrolidinyloxy)-1-cyclopropyl-6-fluoro-1,4-dihydro-4-oxoquinoline-3-carboxylic acid hydrochloride]
MIC [2]: 3.13 µg/mL
MIC [3]: 0.39 µg/mL
MIC (P. aeruginosa (IFO 3445)): 3.13 µg/mL

Cl.O=C(O)c1cn(C2CC2)c2c(F)c(OC3CCNC3)c(F)cc2c1=O (centres unmarked) [Compound 2, 7-(3-Pyrrolidinyloxy)-1-cyclopropyl-6,8-difluoro-1,4-dihydro-4-oxoquinoline-3-carboxylic acid hydrochloride]
MIC [2]: 0.78 µg/mL
MIC [3]: 0.2 µg/mL
MIC (P. aeruginosa (IFO 3445)): 0.78 µg/mL

O=C(O)c1cn(C2CC2)c2c(F)c(N3COC(CO)C3)c(F)cc2c1=O (centres unmarked) [Compound 74, 1-Cyclopropyl-6,8-difluoro-7-(5-hydroxymethyl-3-oxazolidinyl)-1,4-dihydro-4-oxoquinoline-3-carboxylic acid]
MIC [2]: 0.1 µg/mL (≈ 0.273 µM)
MIC [3]: 0.1 µg/mL (≈ 0.273 µM)
MIC (P. aeruginosa (IFO 3445)): 0.78 µg/mL (≈ 2.13 µM)

CC1CN(c2cc3c(cc2F)c(=O)c(C(=O)O)cn3C2CC2)CO1 (centres unmarked) [Compound 59]
MIC [2]: 0.1 µg/mL (≈ 0.301 µM)
MIC [3]: 0.2 µg/mL (≈ 0.602 µM)
MIC (P. aeruginosa (IFO 3445)): 0.78 µg/mL (≈ 2.35 µM)

O=C(O)c1cn(C2CC2)c2cc(N3CCOC3)c(F)cc2c1=O [Compound 57, 1-Cyclopropyl-6-fluoro-7-(3-oxazolidinyl)-1,4-dihydro-4-oxoquinoline-3-carboxylic acid]
MIC [2]: 0.1 µg/mL (≈ 0.314 µM)
MIC [3]: 0.2 µg/mL (≈ 0.628 µM)
MIC (P. aeruginosa (IFO 3445)): 0.78 µg/mL (≈ 2.45 µM)

CN(C)CC1CN(c2cc3c(cc2F)c(=O)c(C(=O)O)cn3C2CC2)CO1 (centres unmarked) [Compound 60]
MIC [2]: 0.2 µg/mL (≈ 0.533 µM)
MIC [3]: 0.2 µg/mL (≈ 0.533 µM)
MIC (P. aeruginosa (IFO 3445)): 1.56 µg/mL (≈ 4.16 µM)

Cl.Nc1c(F)c(OC2CCNC2)c(F)c2c1c(=O)c(C(=O)O)cn2C1CC1 (centres unmarked) [Compound 8, 7-(3-Pyrrolidinyloxy)-1-cyclopropyl-5-amino-6,8-difluoro-1,4-dihydro-4-oxoquinoline-3-carboxylic acid hydrochloride]
MIC [2]: 0.39 µg/mL
MIC [3]: 0.1 µg/mL
MIC (P. aeruginosa (IFO 3445)): 0.78 µg/mL

Cl.O=C(O)c1cn(-c2ccc(F)cc2F)c2nc(OC3CCNC3)c(F)cc2c1=O (centres unmarked) [Compound 10, 7-(3-Pyrrolidinyloxy)-1-(2,4-difluorophenyl)-6-fluoro-1,4-dihydro-4-oxo-1,8-naphthyridine-3-carboxylic acid hydrochloride]
MIC [2]: 1.56 µg/mL
MIC [3]: 0.78 µg/mL
MIC (P. aeruginosa (IFO 3445)): 3.13 µg/mL

CCn1cc(C(=O)O)c(=O)c2cc(F)c(N3CCOC3)cc21 [Compound 58]
MIC [2]: 0.39 µg/mL (≈ 1.27 µM)
MIC [3]: 0.78 µg/mL (≈ 2.55 µM)
MIC (P. aeruginosa (IFO 3445)): 6.25 µg/mL (≈ 20.4 µM)

CC1COCN1c1c(F)cc2c(=O)c(C(=O)O)cn(C3CC3)c2c1F (centres unmarked) [Compound 68]
MIC [2]: 0.2 µg/mL (≈ 0.571 µM)
MIC [3]: 0.78 µg/mL (≈ 2.23 µM)
MIC (P. aeruginosa (IFO 3445)): 3.13 µg/mL (≈ 8.93 µM)

CCn1cc(C(=O)O)c(=O)c2cc(F)c(OC3CCN(C)CC3)cc21 [Compound 11, 7-(1-Methyl-4-piperidyloxy)-1-ethyl-6-fluoro-1,4-dihydro-4-oxoquinoline-3-carboxylic acid]
MIC [2]: 1.56 µg/mL (≈ 4.48 µM)
MIC [3]: 0.78 µg/mL (≈ 2.24 µM)
MIC (P. aeruginosa (IFO 3445)): 12.5 µg/mL (≈ 35.9 µM)

CC1COc2c(OC3CCN(C)CC3)c(F)cc3c(=O)c(C(=O)O)cn1c23 (centres unmarked) [Compound 12, 10-(1-Methyl-4-piperidyloxy)-9-fluoro-2,3-dihydro-3-methyl-7-oxo-7H-pyrido[1,2,3-de][1,4]-benzoxazine-6-carboxylic acid]
MIC [2]: 1.56 µg/mL (≈ 4.14 µM)
MIC [3]: 1.56 µg/mL (≈ 4.14 µM)
MIC (P. aeruginosa (IFO 3445)): 12.5 µg/mL (≈ 33.2 µM)

O=C(O)c1cn(C2CC2)c2c(F)c(N3CCOC3)c(F)c(F)c2c1=O [Compound 72, 1-Cyclopropyl-5,6,8-trifluoro-7-(3-oxazolidinyl)-1,4-dihydro-4-oxoquinoline-3-carboxylic acid]
MIC [2]: 0.2 µg/mL (≈ 0.565 µM)
MIC [3]: 0.39 µg/mL (≈ 1.1 µM)
MIC (P. aeruginosa (IFO 3445)): 3.13 µg/mL (≈ 8.83 µM)

CC1CN(c2c(F)cc3c(=O)c(C(=O)O)cn(C4CC4)c3c2F)CO1 (centres unmarked) [Compound 67]
MIC [2]: 0.1 µg/mL (≈ 0.285 µM)
MIC [3]: 0.2 µg/mL (≈ 0.571 µM)
MIC (P. aeruginosa (IFO 3445)): 0.78 µg/mL (≈ 2.23 µM)

O=C(O)c1cn(C2CC2)c2c(F)c(N3CCCOC3)c(F)cc2c1=O [Compound 76, Cyclopropyl-6,8-difluoro-7-(tetrahydro-1,3-oxazin)-3-yl-1,4-dihydro-4-oxoquinoline-3-carboxylic acid]
MIC [2]: 0.39 µg/mL (≈ 1.11 µM)
MIC [3]: 0.39 µg/mL (≈ 1.11 µM)
MIC (P. aeruginosa (IFO 3445)): 3.13 µg/mL (≈ 8.93 µM)

CC1COc2c(OC3CCNC3)c(F)cc3c(=O)c(C(=O)O)cn1c23.Cl (centres unmarked) [Compound 9, 10-(3-Pyrrolidinyloxy)-9-fluoro-2,3-dihydro-3-methyl-7-oxo-7H-pyrido[1,2,3-de][1,4]-benzoxazine-6-carboxylic acid hydrochloride]
MIC [2]: 1.56 µg/mL
MIC [3]: 1.25 µg/mL
MIC (P. aeruginosa (IFO 3445)): 25 µg/mL

CCOC(=O)c1cn(C2CC2)c2c(F)c(N3COC(CN(C)C)C3)c(F)cc2c1=O (centres unmarked) [Compound 64]
logD [1]: -0.316

O=C(O)c1cn(C2CC2)c2c(F)c(N3CCOC3)c(F)cc2c1=O [Compound 66, 1-Cyclopropyl-6,8-difluoro-7-(3-oxazolidinyl)-1,4-dihydro-4-oxoquinoline-3-carboxylic acid]
MIC [2]: 0.2 µg/mL (≈ 0.595 µM)
MIC [3]: 0.2 µg/mL (≈ 0.595 µM)
MIC (P. aeruginosa (IFO 3445)): 1.56 µg/mL (≈ 4.64 µM)
